According to patent publication US20050009894A1 (Aventis Pharma S.A., priority 2001, published 2005):

The compounds below were run against T1, human KDR enzyme (Homo sapiens, UniProt P35968) (assay: Phosphorylation of the substrate PLCγ by the enzyme KDR in vitro (flashplate technique)). Conditions: Table VII, degrees of activity by IC50 range; read-out: Activity.
T1 construct: The cytoplasmic domain of human KDR enzyme is cloned in the form of a GST fusion; GST; made in house; host or cells: SF21 insect cells (baculovirus, pFastBac)
T1 sequence (P35968 786-1356 limits assumed): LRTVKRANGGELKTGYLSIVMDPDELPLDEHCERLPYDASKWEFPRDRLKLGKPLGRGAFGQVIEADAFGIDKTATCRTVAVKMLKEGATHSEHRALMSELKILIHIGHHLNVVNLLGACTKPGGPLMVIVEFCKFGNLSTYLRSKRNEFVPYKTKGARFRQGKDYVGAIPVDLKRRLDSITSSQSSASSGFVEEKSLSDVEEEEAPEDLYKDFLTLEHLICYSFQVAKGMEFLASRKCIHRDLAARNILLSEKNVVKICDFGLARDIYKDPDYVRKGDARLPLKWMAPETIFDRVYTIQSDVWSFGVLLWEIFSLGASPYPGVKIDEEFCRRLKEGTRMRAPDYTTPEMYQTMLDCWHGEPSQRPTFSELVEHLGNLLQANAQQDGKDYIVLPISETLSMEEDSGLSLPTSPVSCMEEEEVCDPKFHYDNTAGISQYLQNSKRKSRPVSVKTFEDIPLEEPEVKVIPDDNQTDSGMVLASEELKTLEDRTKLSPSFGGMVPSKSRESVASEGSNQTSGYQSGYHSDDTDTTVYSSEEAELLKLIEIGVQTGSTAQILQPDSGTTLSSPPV
Type: biochemical
Protocol: The inhibitory effect of the compounds is determined in a test of phosphorylation of a substrate by the enzyme KDR in vitro by the flasplate technique (96-well plate, NEN). The cytoplasmic domain of human KDR enzyme is cloned in the form of a GST fusion into the baculovirus expression vector pFastBac. The protein is expressed in the SF21 cells and purified to about 60% homogeneity.
The kinase activity of KDR is measured in 20 mM MOPS, 10 mM MgCl2, 10 mM MnCl2, 1 mM DTT, 2.5 mM EGTA, 10 mM β-glycerophosphate, pH 7.2 in the presence of 10 mM MgCl2, 100 μM Na3VO4, 1 mM NaF. 10 μl of the compound are added to 70 μl of kinase buffer containing 100 ng of KDR enzyme at 4° C. The reaction is initiated by adding 20 μl of solution containing 2 μg of substrate (fragment SH2-SH3 of PLCγ expressed in the form of a GST fusion protein), 2 μCi γ33P[ATP] and 2 μM cold ATP. After incubating for 1 h at 37° C., the reaction is quenched by adding 1 volume (100 μl) of 200 mM EDTA. The incubation buffer is removed and the wells are washed three times with 300 μl of PBS. The radioactivity is measured in each well using a Top Count NXT instrument (Packard).
Background noise is determined by measuring the radio-activity in wells in quadruplet containing radioactive ATP and the substrate alone.
An activity control is measured in wells in quadruplet containing all the reagents (γ33P-[ATP], KDR and the substrate PLCγ) and in the absence of compound.
The inhibition of the KDR activity with the compound of the invention is expressed as a percentage of inhibition of the control activity determined in the absence of compound.
The compound SU5614 (Calbiochem) (1 μM) is included in each plate as inhibition control.
The IC50 values for the compounds are calculated by plotting the dose-response curves. The IC50 corresponds to the concentration of compound that induces a 50% inhibition of the kinase activity.

Row | SMILES | IC50 [µM]
1 | NS(=O)(=O)c1ccc(CNC(=O)c2ccc3[nH]c(-c4n[nH]c5ccccc45)nc3c2)cc1 [Example 28, 2-(1H-Indazol-3-yl)-1H-benzoimidazole-5-carboxylic acid 4-(aminosulpnonyl)benzylamide] | < 0.3
2 | CCOCCCNC(=O)c1ccc2[nH]c(-c3n[nH]c4ccccc34)nc2c1 [Example 29, 2-(1H-Indazol-3-yl)-1H-benzoimidazole-5-carboxylic acid (3-ethoxy-propyl)-amide] | 0.3 to 3
3 | O=C(NCc1ccc(Br)cc1)c1ccc2[nH]c(-c3n[nH]c4ccccc34)nc2c1 [Example 30, 2-(1H-Indazol-3-yl)-1H-benzoimidazole-5-carboxylic acid 4-bromo-benzylamide] | < 0.3
4 | CS(=O)(=O)c1ccc(CNC(=O)c2ccc3[nH]c(-c4n[nH]c5ccccc45)nc3c2)cc1 [Example 31, 2-(1H-Indazol-3-yl)-1H-benzoimidazole-5-carboxylic acid 4-methanesulfonyl-benzylamide] | < 0.3
5 | O=C(NCc1cccc2ccccc12)c1ccc2[nH]c(-c3n[nH]c4ccccc34)nc2c1 [Example 32, 2-(1H-Indazol-3-yl)-1H-benzoimidazole-5-carboxylic acid (naphthalen-1-ylmethyl)-amide] | 0.3 to 3
6 | O=C(NCc1ccc(C(F)(F)F)cc1)c1ccc2[nH]c(-c3n[nH]c4ccccc34)nc2c1 [Example 33, 2-(1H-Indazol-3-yl)-1H-benzoimidazole-5-carboxylic acid 4-trifluoromethyl-benzylamide] | 0.3 to 3
7 | O=C(NCc1cccs1)c1ccc2[nH]c(-c3n[nH]c4ccccc34)nc2c1 [Example 34, 2-(1H-Indazol-3-yl)-1H-benzoimidazole-5-carboxylic acid (thiophen-2-ylmethyl)-amide] | 0.3 to 3
8 | CN(C)c1ccc(CNC(=O)c2ccc3[nH]c(-c4n[nH]c5ccccc45)nc3c2)cc1 [Example 35, 2-(1H-Indazol-3-yl)-1H-benzoimidazole-5-carboxylic acid 4-dimethylamino-benzylamide] | 0.3 to 3
9 | CC(C)(C)OC(=O)N1CCC(CNC(=O)c2ccc3[nH]c(-c4n[nH]c5ccccc45)nc3c2)CC1 [Example 36, 4-({[2-(1H-Indazol-3-yl)-1H-benzoimidazole-5-carbonyl]-amino}-methyl)-piperidine-1-carboxylic acid tert-butyl ester] | 0.3 to 3
10 | O=C(NCc1ccc([N+](=O)[O-])cc1)c1ccc2[nH]c(-c3n[nH]c4ccccc34)nc2c1 [Example 37, 2-(1H-Indazol-3-yl)-1H-benzoimidazole-5-carboxylic acid 4-nitro-benzylamide] | < 0.3
11 | O=C(NCc1cccnc1)c1ccc2[nH]c(-c3n[nH]c4ccccc34)nc2c1 [Example 38, 2-(1H-Indazol-3-yl)-1H-benzoimidazole-5-carboxylic acid (pyridin-3-ylmethyl)-amide] | 0.3 to 3
12 | O=C(NCc1cccc(Br)c1)c1ccc2[nH]c(-c3n[nH]c4ccccc34)nc2c1 [Example 39, 2-(1H-Indazol-3-yl)-1H-benzoimidazole-5-carboxylic acid 3-bromo-benzylamide] | 0.3 to 3
13 | COc1cccc(CNC(=O)c2ccc3[nH]c(-c4n[nH]c5ccccc45)nc3c2)c1 [Example 40, 2-(1H-Indazol-3-yl)-1H-benzoimidazole-5-carboxylic acid 3-methoxy-benzylamide] | 0.3 to 3
14 | O=C(NCc1ccc2c(c1)OCO2)c1ccc2[nH]c(-c3n[nH]c4ccccc34)nc2c1 [Example 41, 2-(1H-Indazol-3-yl)-1H-benzoimidazole-5-carboxylic acid (benzo[1,3]dioxole-5-ylmethyl)-amide] | 0.3 to 3
15 | O=C(NCc1csc2ccccc12)c1ccc2[nH]c(-c3n[nH]c4ccccc34)nc2c1 [Example 42, 2-(1H-Indazol-3-yl)-1H-benzoimidazole-5-carboxylic acid (benzo[b]thiophen-3-ylmethyl)-amide] | 0.3 to 3
16 | Cc1nn(C)cc1CNC(=O)c1ccc2[nH]c(-c3n[nH]c4ccccc34)nc2c1 [Example 43, 2-(1H-Indazol-3-yl)-1H-benzoimidazole-5-carboxylic acid (1,3-dimethyl-1H-pyrazol-4-ylmethyl)-amide] | 0.3 to 3

Same assay, conditions: product tested at 10 μM; read-out: % of inhibition of the phosphorylation of PLCγ by KDR (product tested at a concentration of 10 μM)

Row | SMILES | inhibition at 10 µM [%]
17 | CCNC(=O)c1ccc2[nH]c(-c3n[nH]c4ccccc34)nc2c1 [Example 3, 2-(1H-Indazol-3-yl)-1H-benzimidazole-5-carboxylic acid N-ethylamide] | 91.8
18 | O=C(Nc1ccccc1)c1ccc2[nH]c(-c3n[nH]c4ccccc34)nc2c1 [Example 5, 2-(1H-Indazol-3-yl)-1H-benzimidazole-5-carboxylic acid N-phenylamide] | 91.9
19 | Brc1ccc2nc(-c3n[nH]c4ccccc34)[nH]c2c1 [Example 18, 5-Bromo-2-(1H-indazol-3-yl)-3H-benzimidazole] | 91.2
20 | Cc1cc2nc(-c3cc(-c4cccs4)n[nH]3)[nH]c2cc1C [Example 21, 5,6-Dimethyl-2-(5-thiophen-2-yl-2H-pyrazol-3-yl)-1H-benzimidazole] | 35

Same assay, conditions: read-out: IC50 (μM) on inhibition of the phosphory-lation of PLCγ by KDR

Row | SMILES | IC50 [µM]
21 | O=C(NCc1ccccc1)c1ccc2nc(-c3n[nH]c4ccccc34)[nH]c2c1 [Example 1, 2-(1H-Indazol-3-yl)-1H-benzimidazole-5-carboxylic acid benzylamide] | 0.47
22 | CNC(=O)c1ccc2[nH]c(-c3n[nH]c4ccccc34)nc2c1 [Example 2, 2-(1H-Indazol-3-yl)-1H-benzimidazole-5-carboxylic acid N-methylamide] | 0.45
23 | CC(C)NC(=O)c1ccc2[nH]c(-c3n[nH]c4ccccc34)nc2c1 [Example 4, 2-(1H-Indazol-3-yl)-1H-benzimidazole-5-carboxylic acid N-isopropylamide] | 0.45
24 | O=C(NCCc1ccccc1)c1ccc2[nH]c(-c3n[nH]c4ccccc34)nc2c1 [Example 6, 2-(1H-Indazol-3-yl)-1H-benzimidazole-5-carboxylic acid N-phenethylamide] | 0.33
25 | O=C(c1ccc2[nH]c(-c3n[nH]c4ccccc34)nc2c1)N1CCOCC1 [Example 7, 2-(1H-Indazol-3-yl)-1H-benzimidazole-5-carboxylic acid N-morpholinoamide] | 0.72
26 | CN1CCN(C(=O)c2ccc3[nH]c(-c4n[nH]c5ccccc45)nc3c2)CC1 [Example 8, 2-(1H-Indazol-3-yl)-1H-benzimidazole-5-carboxylic acid N-(N′-methyl-piperazino)amide] | 0.67
27 | O=C(c1ccc2[nH]c(-c3n[nH]c4ccccc34)nc2c1)N1CCCC1 [Example 9, 2-(1H-Indazol-3-yl)-1H-benzimidazole-5-carboxylic acid N-pyrrolidinoamide] | 0.35
28 | CC(C)CNC(=O)c1ccc2[nH]c(-c3n[nH]c4ccccc34)nc2c1 [Example 10, 2-(1H-Indazol-3-yl)-1H-benzimidazole-5-carboxylic acid N-(isobutyl)amide] | 0.34
29 | O=C(NCC1CCCCC1)c1ccc2[nH]c(-c3n[nH]c4ccccc34)nc2c1 [Example 11, 2-(1H-Indazol-3-yl)-1H-benzimidazole-5-carboxylic acid N-(cyclohexylmethyl)amide] | 0.26
30 | O=C(NCc1ccco1)c1ccc2[nH]c(-c3n[nH]c4ccccc34)nc2c1 [Example 12, 2-(1H-Indazol-3-yl)-1H-benzimidazole-5-carboxylic acid N-(2-furfuryl)amide] | 0.16
31 | CN(Cc1ccccc1)C(=O)c1ccc2[nH]c(-c3n[nH]c4ccccc34)nc2c1 [Example 13, 2-(1H-Indazol-3-yl)-1H-benzimidazole-5-carboxylic acid N-benzyl-N-methylamide] | 0.61
32 | COC(=O)c1ccc2nc(-c3n[nH]c4ccccc34)[nH]c2c1 [Example 14, Methyl 2-(1H-indazol-3-yl)-3H-benzimidazole-5-carboxylate] | 1.2
33 | Cc1cc2nc(-c3n[nH]c4ccccc34)[nH]c2cc1C [Example 15, 5,6-Dimethyl-2-(1H-indazol-3-yl)-1H-benzimidazole] | 0.8
34 | COc1ccc2nc(-c3n[nH]c4ccccc34)[nH]c2c1 [Example 16, 5-Methoxy-2-(1H-indazol-3-yl)-1H-benzimidazole] | 2
35 | Cc1cc(-c2nc3cc(C)c(C)cc3[nH]2)[nH]n1 [Example 20, 5,6-Dimethyl-2-(5-methyl-2H-pyrazol-3-yl)-1H-benzimidazole] | 3.4
36 | CCc1cc(-c2nc3cc(C)c(C)cc3[nH]2)[nH]n1 [Example 23, 2-(5-Ethyl-2H-pyrazol-3-yl)-5,6-dimethyl-1H-benzimidazole] | 2
